This assay relates to Human peripheral blood mononuclear cells (PBMC). Description: Cytokine Induction in Human Cells (PBMC), minimum effective concentration. The format is cell-based. The conditions noted are these: 21-24 hours, lowest concentration giving at least 2× negative control, tested 0.01-30 micromolar; for MEC to Induce Cytokine, IFN-alpha: ELISA; for MEC to Induce Cytokine, IFN-gamma / MEC to Induce Cytokine, TNF-alpha: multiplex bead assay. Here is the method: Whole blood was obtained from healthy human donors and collected by venipuncture into vacutainer tubes or syringes containing ethylene diamine tetraacetic acid (EDTA). Human peripheral blood mononuclear cells (PBMC) were purified from the whole blood by density gradient centrifugation. Histopaque 1077 (15 mL, Sigma, St. Louis, Mo.) was transferred to 6×50 mL sterile polypropylene conical tubes. The Histopaque was overlayed with 15-25 mL of blood diluted 1:2 in Hank's Balanced Salts Solution (HBSS) (Gibco, Life Technologies, Grand Island, N.Y.). The tubes were then centrifuged at 1370 revolutions per minute (rpm) for 30 minutes at 20° C., with no brake (400×g, GH 3.8A Rotor).
The interface (buffy coat) containing the PBMC was collected and placed in a new sterile 50 mL conical polypropylene centrifuge tube. The PBMC were mixed with an equal volume of HBSS (about 20 mL from the interface and about 20 mL of HBSS), and then centrifuged at 1090 rpm, 10 minutes, 20° C., with brake (270×g, GH 3.8A Rotor). After completing centrifugation, the cells were resuspended in 2-3mL ACK Red blood cell lysis buffer (ammonium chloride potassium solution, Gibco, Life Technologies) and incubated for 2-5 minutes at 20° C. Next, HBSS (40 mL) was added to the cells, and the sample was centrifuged at 270×g for 10 minutes at 20° C. The supernatant was decanted, and the cell pellet was resuspended in 5 mL AIM V Medium (Gibco, Life Technologies). Cell aggregates and debris were removed by filtering the cell solution through a BD Falcon 70 micron nylon cell strainer (BD Biosciences, San Jose, Calif.).
The number of viable cells was determined by counting with a Miltenyi FACS instrument (Miltenyi Biotec Inc., San Diego, Calif.) or by using a hemacytometer. For determining cell viability with a hemacytometer, the cells were diluted 1/10 in 0.4% trypan blue and HBSS (specifically, 50 microliter of trypan blue +40 microliter of HBSS +10 microliter of cell solution were added to a microfuge tube and mixed). Ten microliters of the diluted cells were then applied to the hemacytometer, and the number of viable PBMC were determined by microscopy.
The PBMC sample was then resuspended in 96-well plates at a concentration of 8×10^5 cells/well in 0.1 mL of AIM-V medium. Each compound was solubilized in dimethyl sulfoxide (DMSO) to create a 3 mM stock solution. The stock solution was then further diluted with AIM-V medium to prepare the serial dilutions. The diluted compound (100 microliters) was then transferred to the PBMCs to produce testing sets with final compound concentrations of 30, 10, 3.3, 1.1, 0.37, 0.12, 0.04, 0.01 micromolar. The plates also had both positive and negative controls. The negative control wells contained only AIM-V medium with no example compound. The positive control wells contained a control set of imiquimod serially diluted to concentrations of 30, 10, 3.3, 1.1, 0.37, 0.12, 0.04, 0.01 micromolar. The concentrations used in the control set were selected to match the concentrations used in the testing set. The plates were then cultured at 37° C./5% CO2 for 21-24 hours. Cell-free supernatants were harvested by centrifuging the 96-well plates at 2100 rpm, 23° C. for 10 minutes. Approximately 160 microliters of the supernatant was then stored in a NUNC 96-well plate, covered with the compression cap and stored at −80° C. until the cytokine analysis was done.
IFN-alpha cytokine levels (picograms/mL) were measured by ELISA (human IFN-alpha, pan specific, Mabtech, Cincinnati, Ohio). IFN-gamma and TNF-alpha levels (picograms/mL) were measured by multiplex bead assay (magnetic beads, R & D Systems, Minneapolis, Minn.) according to the manufacturer's instructions.
Specifically, the minimum effective concentration of each compound (micromolar) was determined as the lowest concentration of the compound that induced a measured cytokine response at a level ([…]) that was at least 2× greater than that observed with the negative control wells.
A general note: ELISA stands for enzyme-linked immunosorbent assay.

The source of these data is patent publication US20220194935A1, “PHENETHYL SUBSTITUTED IMIDAZO[4,5-C]QUINOLINE COMPOUNDS WITH AN N-1 BRANCHED GROUP” (3M INNOVATIVE PROPERTIES COMPANY, priority 2019, published 2022).

Each structure is given as a SMILES string.

On to `C[C@H](Cc1ccccc1)n1cnc2c(N)nc3ccccc3c21` [Example 1, 1-[(1R)-1-methyl-2-phenyl-ethyl]imidazo[4,5-c]quinolin-4-amine], for which the “MEC to Induce Cytokine, IFN-alpha” value was 0.37 µM; the “MEC to Induce Cytokine, IFN-gamma” value amounted to 1.1 µM; the “MEC to Induce Cytokine, TNF-alpha” value turned out to be 0.12 µM.
Consider `CCOC[C@@H](Cc1ccccc1)n1cnc2c(N)nc3ccccc3c21` [Example 4, 1-[(1R)-1-benzyl-2-ethoxy-ethyl]imidazo[4,5-c]quinolin-4-amine], for which the “MEC to Induce Cytokine, IFN-alpha” value worked out at 0.37 µM; the “MEC to Induce Cytokine, IFN-gamma” value is more than 30 µM; the “MEC to Induce Cytokine, TNF-alpha” value is 0.37 µM.
Take `Nc1nc2ccccc2c2c1ncn2CCc1ccccc1` [Comparative Example 1, 1-phenethyl-1H-imidazo[4,5-c]quinolin-4-amine, reference compound]: the “MEC to Induce Cytokine, IFN-alpha” value was found to be 1.1 µM; the “MEC to Induce Cytokine, IFN-gamma” value was more than 30 µM; the “MEC to Induce Cytokine, TNF-alpha” value was 1.1 µM.
As for `CCCC[C@H](Cc1ccccc1)n1cnc2c(N)nc3ccccc3c21` [Example 2, 1-[(1R)-1-benzylpentyl]imidazo[4,5-c]quinolin-4-amine], the “MEC to Induce Cytokine, IFN-alpha” value is not above 0.01 µM; the “MEC to Induce Cytokine, IFN-gamma” value is not above 0.01 µM; the “MEC to Induce Cytokine, TNF-alpha” value was not above 0.01 µM.
In the case of `CCCCOc1ccc(C[C@@H](CCCC)n2cnc3c(N)nc4ccccc4c32)cc1` [Example 7, 1-[(1R)-1-[(4-butoxyphenyl)methyl]pentyl]imidazo[4,5-c]quinolin-4-amine], the “MEC to Induce Cytokine, IFN-alpha” value was not above 0.01 µM; the “MEC to Induce Cytokine, IFN-gamma” value is not above 0.01 µM; the “MEC to Induce Cytokine, TNF-alpha” value was not above 0.01 µM.
`COC[C@H](Cc1ccccc1)n1cnc2c(N)nc3ccccc3c21` [Example 5, 1-[(1S)-1-benzyl-2-methoxy-ethyl]imidazo[4,5-c]quinolin-4-amine]: the “MEC to Induce Cytokine, IFN-alpha” value is not above 0.01 µM; the “MEC to Induce Cytokine, IFN-gamma” value is not above 0.01 µM; the “MEC to Induce Cytokine, TNF-alpha” value is not above 0.01 µM.
In the case of `COC[C@@H](Cc1ccccc1)n1cnc2c(N)nc3ccccc3c21` [Example 3, 1-[(1R)-1-benzyl-2-methoxy-ethyl]imidazo[4,5-c]quinolin-4-amine], the “MEC to Induce Cytokine, IFN-alpha” value worked out at 1.1 µM; the “MEC to Induce Cytokine, IFN-gamma” value is more than 30 µM; the “MEC to Induce Cytokine, TNF-alpha” value was determined as 1.1 µM.
As for `CCOC[C@H](Cc1ccccc1)n1cnc2c(N)nc3ccccc3c21` [Example 6, 1-[(1S)-1-benzyl-2-ethoxy-ethyl]imidazo[4,5-c]quinolin-4-amine], the “MEC to Induce Cytokine, IFN-alpha” value is not above 0.01 µM; the “MEC to Induce Cytokine, IFN-gamma” value was not above 0.01 µM; the “MEC to Induce Cytokine, TNF-alpha” value was not above 0.01 µM.
